Literature values in patent US6680321B1, “Compounds with analgesic effect” (AstraZeneca Canada, Inc., priority 1995, dated 2004).

Columns and labels:
δ receptor = δ receptor (Homo sapiens, UniProt P41143)
[1] = in vivo
μ receptor = μ receptor (Homo sapiens, UniProt P35372)
Chain of μ receptor (P35372 whole entry): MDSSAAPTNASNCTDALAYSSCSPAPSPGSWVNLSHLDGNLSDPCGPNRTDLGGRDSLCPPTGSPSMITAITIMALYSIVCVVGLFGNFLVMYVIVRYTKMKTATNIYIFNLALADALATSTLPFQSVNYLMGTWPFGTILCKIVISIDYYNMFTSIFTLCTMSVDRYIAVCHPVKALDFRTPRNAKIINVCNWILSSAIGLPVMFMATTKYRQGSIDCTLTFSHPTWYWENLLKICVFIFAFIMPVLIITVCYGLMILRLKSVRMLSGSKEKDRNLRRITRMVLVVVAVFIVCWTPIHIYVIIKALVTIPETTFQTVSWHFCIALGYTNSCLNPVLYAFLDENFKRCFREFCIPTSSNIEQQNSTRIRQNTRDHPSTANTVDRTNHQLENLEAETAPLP

Chain of δ receptor (P41143 whole entry): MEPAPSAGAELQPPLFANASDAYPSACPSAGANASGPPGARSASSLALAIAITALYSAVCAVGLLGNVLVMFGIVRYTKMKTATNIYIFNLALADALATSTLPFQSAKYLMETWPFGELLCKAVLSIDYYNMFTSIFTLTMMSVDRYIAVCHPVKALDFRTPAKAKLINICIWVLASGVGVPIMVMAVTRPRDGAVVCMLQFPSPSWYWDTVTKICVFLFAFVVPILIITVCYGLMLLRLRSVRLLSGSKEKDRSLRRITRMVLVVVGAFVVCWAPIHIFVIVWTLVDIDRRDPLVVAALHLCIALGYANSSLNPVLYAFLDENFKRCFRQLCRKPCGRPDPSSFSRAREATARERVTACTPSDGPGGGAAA

| Structure (SMILES) | selectivity for the δ receptor vs μ′ receptor binding (δ receptor) | analgesic activity [1] | affinity for the μ receptor (μ receptor) |
| --- | --- | --- | --- |
| Oc1ccc2c3c1O[C@H]1c4[nH]c5ccccc5c4C[C@@]4(O)[C@@H](C2)N(CC2CC2)CC[C@]314 [naltrindole] | < 10 fold | no analgesic activity |  |
| C=CCN1C[C@H](C)N([C@H](c2ccc(C(=O)N(CC)CC)cc2)c2cccc(O)c2)C[C@H]1C [BW 373U86] |  | with analgesic activity | significant affinity |
